Measurements taken from the NIST ThermoML archive (doi:10.1016/j.fluid.2006.01.014).
± gives the expanded uncertainty stated by the source.

Conditions: Liquid; Ebulliometric method (Recirculating still)

Row | SMILES | Normal boiling temperature
1 | c1ccccc1 [benzene] | 80.01 ± 0.2 °C
2 | C[Si](C)(Cl)Cl [dichlorodimethylsilane] | 70.31 ± 0.2 °C
3 | C[Si](Cl)(Cl)Cl [trichloromethylsilane] | 66.4 ± 0.2 °C
